Assay results as given in ChEMBL document CHEMBL3992569, “Opioid Receptor Activity and Analgesic Potency of DPDPE Peptide Analogues Containing a Xylene Bridge” (ACS Med Chem Lett, 2017).
Calls of active or inactive are those of the source. The rule behind the calls is not given here.

Assays:
Mus musculus [1] = assay: Antinociceptive activity in CD-1 mouse model of thermal-induced nociception assessed as increase in latency to respond with hind paw lick or jumping at 23 nmol/mouse, icv measured 15 to 60 mins post dose by hot plate test relative to control; format: functional
Mus musculus [2] = assay: Antinociceptive activity in CD-1 mouse model of thermal-induced nociception assessed as increase in latency to tail withdrawal at 23 nmol/mouse, icv measured 15 to 60 mins post dose by tail flick test relative to control; format: functional
Mus musculus [3] = assay: Analgesic activity in CD-1 mouse model of formalin-induced pain assessed as increase in latency to respond with hind paw lick or biting at 150 nmol/mouse, sc administered 15 mins prior to formalin injection measured up to 40 mins post dose; format: functional, organism-based
Mus musculus [4] = assay: Antinociceptive activity in CD-1 mouse model of thermal-induced nociception assessed as increase in latency to respond with hind paw lick or jumping at 23 nmol/mouse, icv measured 45 mins post dose by hot plate test; format: functional
Mus musculus [5] = assay: Antinociceptive activity in CD-1 mouse model of thermal-induced nociception assessed as increase in latency to tail withdrawal at 23 nmol/mouse, icv measured 45 mins post dose by tail flick test; format: functional

Row | SMILES | MPE (Mus musculus [1]) [%] | MPE (Mus musculus [2]) [%] | Activity (Mus musculus [3]) | Activity (Mus musculus [4]) | Activity (Mus musculus [5])
1 | CC1(C)SCc2cccc(c2)CSC(C)(C)[C@@H](NC(=O)[C@@H](N)Cc2ccc(O)cc2)C(=O)NCC(=O)N[C@@H](Cc2ccccc2)C(=O)N[C@H]1C(=O)O.O=C(O)C(F)(F)F | >60 | >60 | Active | – | –
2 | CC1(C)SSC(C)(C)[C@@H](NC(=O)[C@@H](N)Cc2ccc(O)cc2)C(=O)NCC(=O)N[C@@H](Cc2ccccc2)C(=O)N[C@H]1C(=O)O | – | – | inactive | Active | Active
